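Protocol summary: plate cells (96-well), add compound at 5 concentrations, incubate 48 h, interpolate endpoints linearly. GI50: concentration for 50% inhibition of growth.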 The source made the active and inactive calls. Cut-off read from the data, not from the text of the source: active = GI50 up to about 1.1 µM and inactive = higher.

Some test systems named below: BT-549; HCT-15; SK-MEL-5; CCRF-CEM; OVCAR-5; HOP-92; HOP-62; SF-539; Malme-3M; SK-OV-3; NCI-H460; OVCAR-3; SNB-75; UO-31; NCI/ADR-RES; MCF7; PC-3; SK-MEL-2; UACC-62.
Common to all, as to assay: NCI anticancer screen, dose series, 48 h

With `O=[N+]([O-])c1ccc2c(c1)Cc1cc(/N=C/c3ccc4c(c3)OCO4)ccc1-2`, the GI50 is > 100 µM (inactive) in the experiment on BT-549; over 100 µM in the experiment on HCT-15; > 100 µM (inactive) in the experiment with SK-MEL-5; 61.9 µM (inactive) in the experiment on CCRF-CEM; > 100 µM (inactive) in the experiment with OVCAR-5; > 100 µM (inactive) in the experiment with HOP-92. Besides, the GI50 with HOP-62, in the experiment on SF-539, in the experiment on Malme-3M, with SK-OV-3, with NCI-H460 and in the experiment with OVCAR-3 was > 100 µM (inactive) each time. The GI50 is 89.7 µM (inactive) with SNB-75; > 100 µM (inactive) in the experiment on UO-31; > 100 µM (inactive) with NCI/ADR-RES; > 100 µM (inactive) with MCF7; > 100 µM (inactive) with PC-3; > 100 µM (inactive) in the experiment on SK-MEL-2. Moreover, in the experiment on UACC-62, the GI50 was > 100 µM (inactive).

Take `CC(=O)C1C(=O)C(=O)N(c2cccc(C)c2C)C1=O` (stereo unspecified): the GI50 with BT-549, in the experiment with SK-MEL-5, in the experiment with OVCAR-5, in the experiment with HOP-92, with HOP-62 and in the experiment with SF-539 was > 100 µM (inactive) each time. Besides, the GI50 with SK-OV-3, with OVCAR-3, with SNB-75, with UO-31, with NCI/ADR-RES and in the experiment on MCF7 was > 100 µM (inactive) each time. Also, the GI50 in the experiment with PC-3, in the experiment with SK-MEL-2 and with UACC-62 was > 100 µM (inactive) each time.

Take `Oc1ccc(Cc2nccc3cc(O)c(O)cc23)cc1O`: the GI50 was 54.3 µM (inactive) in the experiment on BT-549; 57.7 µM in the experiment on HCT-15; 28.8 µM (inactive) in the experiment on SK-MEL-5; 17.9 µM (inactive) with CCRF-CEM; 48.9 µM (inactive) with OVCAR-5; 90.2 µM (inactive) in the experiment with HOP-92. The GI50 is 47.4 µM (inactive) in the experiment with HOP-62; 40.4 µM (inactive) in the experiment on SF-539; > 100 µM (inactive) in the experiment on Malme-3M; 66.8 µM (inactive) in the experiment on SK-OV-3; 29.6 µM (inactive) in the experiment on NCI-H460; 90.8 µM (inactive) in the experiment with OVCAR-3. Also, the GI50 is 21 µM (inactive) with SNB-75; 40.6 µM (inactive) in the experiment with UO-31; > 100 µM (inactive) in the experiment on NCI/ADR-RES; 21.5 µM (inactive) in the experiment with MCF7; 52.6 µM (inactive) with PC-3; 49.7 µM (inactive) in the experiment on SK-MEL-2. For the same compound, the GI50 with UACC-62 was 33.4 µM (inactive).

On to `COC(=O)CCC(C)[C@H]1CCC2C3C(C[C@H](OC(C)=O)[C@@]21C)[C@@]1(C)CCC2(C[C@H]1C[C@H]3OC(C)=O)OOC1(CCCCCCC1)OO2` (stereo partly specified), for which the GI50 in the experiment on BT-549 is 9.14 µM (inactive); in the experiment with HCT-15, 5.52 µM; with SK-MEL-5, 6.5 µM (inactive); with CCRF-CEM it was 4.97 µM (inactive); with OVCAR-5, > 100 µM (inactive); in the experiment with HOP-92, 7.55 µM (inactive). Moreover, the GI50 was 4.99 µM (inactive) in the experiment with HOP-62; 18.6 µM (inactive) in the experiment on SF-539; 9.89 µM (inactive) in the experiment with Malme-3M; > 100 µM (inactive) in the experiment with SK-OV-3; 3.24 µM (inactive) in the experiment on NCI-H460; 2.73 µM (inactive) with OVCAR-3. Moreover, the GI50 is 6.35 µM (inactive) in the experiment on SNB-75; 7.26 µM (inactive) with UO-31; > 100 µM (inactive) in the experiment on NCI/ADR-RES; 6.64 µM (inactive) in the experiment on MCF7; 3.4 µM (inactive) with PC-3; > 100 µM (inactive) in the experiment on SK-MEL-2.

These data come from ChEMBL document CHEMBL1201862, “PubChem BioAssay data set” (2004).
